Source: patent US10526322B2, “Inhibitors of kidney-type glutaminase, GLS-1” (CORNELL UNIVERSITY, priority 2014, dated 2020)
Positions count from the first letter of the chain named.

Legend:
Assay type in all cases: binding
[1] = molecular target: T1, 488-GAC and QSY9-GAC (Mus musculus, UniProt D3Z7P3); assay: FRET assay for GAC tetramer formation; settings: 25 nM 488-GAC and 25 nM QSY9-GAC
T1 construct: (residues 72-603) was cloned into a pET23a vector; His-tag with thrombin cleavage site (N, cleaved yes); made in house
T1 sequence (D3Z7P3 72-603 isoform D3Z7P3-2): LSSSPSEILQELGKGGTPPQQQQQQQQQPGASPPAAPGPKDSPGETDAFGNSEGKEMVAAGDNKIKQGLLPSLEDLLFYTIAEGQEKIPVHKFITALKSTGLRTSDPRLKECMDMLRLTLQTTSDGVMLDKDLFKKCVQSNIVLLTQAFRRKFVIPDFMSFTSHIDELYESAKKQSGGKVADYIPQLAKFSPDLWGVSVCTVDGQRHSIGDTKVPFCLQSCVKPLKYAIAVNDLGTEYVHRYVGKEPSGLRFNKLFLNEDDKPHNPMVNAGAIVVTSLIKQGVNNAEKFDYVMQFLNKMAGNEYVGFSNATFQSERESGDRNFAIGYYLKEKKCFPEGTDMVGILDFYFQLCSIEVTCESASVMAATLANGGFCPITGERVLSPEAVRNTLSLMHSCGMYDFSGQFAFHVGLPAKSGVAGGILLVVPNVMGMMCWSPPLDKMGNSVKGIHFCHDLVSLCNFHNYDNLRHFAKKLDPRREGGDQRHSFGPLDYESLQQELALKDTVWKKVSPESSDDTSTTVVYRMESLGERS
Description: Fluorescence experiments were performed using a Varian Cary Eclipse Fluorometer in the counting mode. Excitation and emission wavelengths were 490 and 520 nm, respectively. Experiments were all performed using 1-mL samples with continuous stirring at 20° C. in 50 mM Tris-Acetate, pH 8.5, 0.1 mM ethylenediamine tetraacetic acid (EDTA). For wild-type (WT) GAC titrations in the absence of inorganic phosphate, 25 nM 488-GAC was equilibrated with 25 μL of QSY9-GAC (at varying concentrations) and allowed to equilibrate for 10 minutes, at which point 75 μL of the appropriate concentration of unlabeled WT GAC was added to provide a 10-fold excess over labeled-GAC. To test whether the purified GAC mutants can form oligomers with WT GAC, 200 nM QSY9-GAC (D391K) or 200 nM QSY9-GAC (D391K, K316E, R459E) was added to an equilibrated sample of 20 nM 488-WT GAC. When assaying the effects of BPTES and 968 on oligomer formation, BPTES or 968 was added following equilibration of a sample of 25 nM QSY9-WT GAC and 25 nM 488-WT GAC. Both BPTES and 968 were prepared in DMSO, and appropriate dilutions were made so that less than 2% (v/v) DMSO was added to an experimental sample.

[2] = molecular target: T2, WT GAC (Mus musculus, UniProt D3Z7P3); assay: In vitro photo cross linking of SU-22 and purification of the conjugate; settings: 100 nM WT GAC, 10 μM SU-22, UV, A350/A280
T2 construct: (residues 72-603) was cloned into a pET23a vector; made in house
T2 sequence (D3Z7P3 72-603 isoform D3Z7P3-2): T1 sequence (D3Z7P3 72-603 isoform D3Z7P3-2)
Description: Conditions of in vitro cross linking of WT GAC, and the K316E/D391K/R459E GAC mutant were adapted for efficient cross linking and purification of the cross linked protein product. WT GAC and the K316E/D391K/R459E GAC mutant, both containing the N-terminal His-tag, were diluted to a concentration of 100 nM in 20 mM Tris-HCl (pH=8.6) 100 mM NaCl, upon which 10 μM of SU-22 was added. Following a preincubation time of 5 minutes, samples were exposed to UV light under a hand held 500 W UV lamp to initiate the photo cross linking. Immediately following, bovine serum albumin (BSA, Sigma) was added to a final concentration of 2 mg/mL to help stabilize the cross linked product and to bind excess un-reacted SU-22. To isolate the cross linked product, 2.5 mg cobalt agarose beads (Clontech) were added and the solution was gravity filtered. […] The purified cross linked protein was then concentrated using spin columns with a 30 kD molecular weight cutoff and quantified using UV-vis spectroscopy, where the protein was quantified using the A280 (ε280=38,850 M−1 cm−1) and the cross-linked SU-22 using the A350 (ε350=18,900 M−1 cm−1). […]

[3] = molecular target: T3, K316E/D391K/R459E GAC mutant (Mus musculus, UniProt D3Z7P3, D391K/K316E/R459E); assay: as above
T3 construct: (residues 72-603) was cloned into a pET23a vector; made in house
T3 sequence (D3Z7P3 72-603 isoform D3Z7P3-2 K316E/D391K/R459E): T1 sequence (D3Z7P3 72-603 isoform D3Z7P3-2) with K245E, D320K, R388E
Description: Glutaminase proteins of the WT sequence, or containing the mutations D391K alone, or the mutations K316E/D391K/R459E, were purified as detailed in Example 3 supra. These glutaminase proteins were incubated with increasing concentrations of the compound SU-22, and excited with a hand held UV lamp for 120 seconds. Immediately following UV exposure, samples were loaded onto a 4-20% Tris-Glycine polyacrylamide gel after the addition of SDS-PAGE sample buffer (50 mM Tris-HCl (pH=6.8), 2% SDS, 10% glycerol, 1% β-mercaptoethanol, 12.5 mM EDTA, 0.02% bromophenol blue), and visualized on a UV light box.
Conditions of in vitro cross linking of WT GAC, and the K316E/D391K/R459E GAC mutant were adapted for efficient cross linking and purification of the cross linked protein product. WT GAC and the K316E/D391K/R459E GAC mutant, both containing the N-terminal His-tag, were diluted to a concentration of 100 nM in 20 mM Tris-HCl (pH=8.6) 100 mM NaCl, upon which 10 μM of SU-22 was added. […] The purified cross linked protein was then concentrated using spin columns with a 30 kD molecular weight cutoff and quantified using UV-vis spectroscopy, where the protein was quantified using the A280 (ε280=38,850 M−1 cm−1) and the cross-linked SU-22 using the A350 (ε350=18,900 M−1 cm−1). […]

ratio of cross linked SU-22 to protein [2]	ratio of cross linked SU-22 to protein ([3]; 100 nM K316E/D391K/R459E GAC, 10 μM SU-22, UV, A350/A280)	efficiency of cross linking compared with dimer (D391K) or WT GAC ([3]; UV exposure, SDS-PAGE)	SMILES	effect on GAC tetramer formation (488-GAC emission in mixture with QSY9-GAC) [1]
			CN(C)c1ccc(C2Nc3ccc4ccccc4c3C3=C2C(=O)CC(C)(C)C3)cc1Br (stereo not shown) [Compound 968]	does not appear to interfere with GAC tetramer formation
0.52	0.78	more efficient	CC1(C)CC(=O)C2=C(C1)c1c(ccc3cc4ccccc4cc13)NC2c1ccc(N=[N+]=[N-])cc1 (stereo not shown) [SU-22]	
